Reference: PMC3752463 (Biochemical and biophysical research communications, 2013)
Square brackets hold non-standard residues; d marks the D form. Ends that are not written are not given here.

Experiments:
CXCR4 [1] = molecular target: T1, CXCR4 (Homo sapiens, UniProt P61073); settings: ref [12], cited from earlier work; for IC50: read-out: IC50 (anti-CXCR4 mAb 12G5 competitive assay), previously reported, anti-CXCR4 mAb 12G5 competitive assay
HIV = settings: ref [12]; cited from earlier work
CXCR4 [2] = molecular target: T1, CXCR4; settings: 12G5 CXCR4 competitive binding assay

T1 sequence (P61073 whole entry): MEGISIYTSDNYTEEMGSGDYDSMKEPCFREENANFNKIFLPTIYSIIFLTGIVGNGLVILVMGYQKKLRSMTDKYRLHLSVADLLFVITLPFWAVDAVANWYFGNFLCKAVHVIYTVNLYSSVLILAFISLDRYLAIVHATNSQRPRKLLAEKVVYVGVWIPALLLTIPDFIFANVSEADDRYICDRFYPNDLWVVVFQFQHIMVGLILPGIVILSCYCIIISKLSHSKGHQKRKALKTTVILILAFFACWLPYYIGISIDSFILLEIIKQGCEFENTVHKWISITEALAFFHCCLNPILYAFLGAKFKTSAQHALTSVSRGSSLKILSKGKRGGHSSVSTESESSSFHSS

In the case of LGASWHRPDKCCLGYQKRPLP [DV1], the “CXCR4 binding affinity (in words), earlier work” value (CXCR4 [1]; in words) is listed as “moderate binding affinity with CXCR4” and the “anti-HIV entry activity (in words)” value (HIV) is listed as “anti-HIV entry activity”.
For “LGASWHRPDK ([dL]G[dA][dS][dW][dH][dR][dP][dD][dK]-NH2; N-terminus assumed; SMILES CC(C)C[C@@H](N)C(=O)NCC(=O)N[C@H](C)C(=O)N[C@H](CO)C(=O)N[C@H](Cc1c[nH]c2ccccc12)C(=O)N[C@H](Cc1c[nH]cn1)C(=O)N[C@H](CCCNC(=N)N)C(=O)N1CCC[C@@H]1C(=O)N[C@H](CC(=O)O)C(=O)N[C@H](CCCCN)C(N)=O) [DV3]”, the IC50 (CXCR4 [1]) is given as 0.44 µM.
In the case of “LGASWHRPDKCCLGYQKRPLP ([dL]G[dA][dS][dW][dH][dR][dP][dD][dK][dC][dC][dL]G[dY][dQ][dK][dR][dP][dL][dP]-NH2; cysteine pairing not given here) [DV1]”, the IC50 (CXCR4 [1]) is listed as 0.236 µM.
With LGASWHRPDK [DV3] the “CXCR4 binding potency relative to DV1” value (CXCR4 [2]) was “about two-fold less potent than DV1”.
